Assay results reported in patent US20200392161A1, “SHP2 PHOSPHATASE INHIBITORS AND METHODS OF USE THEREOF” (Relay Therapeutics, Inc., priority 2018, published 2020).
Where a name gives a salt, the structure may show the parent alone.

These molecules were tested against T1, SHP2 (Homo sapiens, UniProt Q06124) (assay: SHP2 allosteric inhibition assay (DiFMUP prompt fluorescence)). Conditions: Table 1; 0.25 nM SHP2, 0.5 μM IRS1_pY1172(dPEG8)pY1222 peptide, DiFMUP 100 μM.
T1 sequence (Q06124 1-593): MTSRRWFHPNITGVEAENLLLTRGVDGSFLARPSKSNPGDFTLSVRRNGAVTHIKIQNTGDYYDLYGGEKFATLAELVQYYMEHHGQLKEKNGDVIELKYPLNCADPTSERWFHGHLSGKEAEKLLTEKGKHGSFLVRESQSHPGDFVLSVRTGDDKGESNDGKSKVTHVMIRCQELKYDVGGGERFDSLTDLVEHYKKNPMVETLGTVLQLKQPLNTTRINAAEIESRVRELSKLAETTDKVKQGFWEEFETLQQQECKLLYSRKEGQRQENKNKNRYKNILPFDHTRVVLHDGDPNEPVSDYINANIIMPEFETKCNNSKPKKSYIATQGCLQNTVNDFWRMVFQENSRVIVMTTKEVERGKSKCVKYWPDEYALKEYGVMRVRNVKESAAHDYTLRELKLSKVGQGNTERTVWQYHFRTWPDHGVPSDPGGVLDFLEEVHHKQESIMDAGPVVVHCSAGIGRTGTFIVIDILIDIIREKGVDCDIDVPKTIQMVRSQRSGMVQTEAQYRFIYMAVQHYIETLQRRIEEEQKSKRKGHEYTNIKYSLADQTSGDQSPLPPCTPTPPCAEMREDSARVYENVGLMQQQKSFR
Type: biochemical
Excerpt: SHP2 Allosteric Inhibition Assay.
SHP2 is allosterically activated through binding of bis-tyrosyl-phosphorylated peptides to its Src Homology 2 (SH2) domains. The latter activation step leads to the release of the auto-inhibitory interface of SHP2, which in turn renders the SHP2 protein tyrosine phosphatase (PTP) active and available for substrate recognition and reaction catalysis. The catalytic activity of SHP2 was monitored using the surrogate substrate DiFMUP in a prompt fluorescence assay format.
The inhibitor dose response curves were analyzed using normalized IC50 regression curve fitting with control based normalization.

First: CC1(N)CCCN(c2nn3c(N)c(-c4cccc(Cl)c4Cl)nc3s2)C1 (centres unmarked) [Compound A1, 2-(3-amino-3-methylpiperidin-1-yl)-6-(2,3-dichlorophenyl)imidazo[2,1-b][1,3,4]thiadiazol-5-amine formate]
Second: CC1(N)CCN(c2nn3c(N)c(-c4cccc(Cl)c4Cl)nc3s2)CC1 [Compound A4, 2-(4-amino-4-methylpiperidin-1-yl)-6-(2,3-dichlorophenyl)imidazo[2,1-b][1,3,4]thiadiazol-5-amine formate]
The IC50 of the first is lower: under 5 µM for the first, over 20 µM for the second. The first is the more potent here.

`CC1(CN)CCN(c2nn3cc(-c4cccc(Cl)c4Cl)nc3s2)CC1` [Compound A2, (1-(6-(2,3-dichlorophenyl)imidazo[2,1-b][1,3,4]thiadiazol-2-yl)-4-methylpiperidin-4-yl)methanamine formate] and `CC1(CN)CCN(c2nn3c(N)c(-c4cccc(Cl)c4Cl)nc3s2)CC1` [Compound A9, 2-(4-(aminomethyl)-4-methylpiperidin-1-yl)-6-(2,3-dichlorophenyl)imidazo[2,1-b][1,3,4]thiadiazol-5-amine formate] fall in the same range of IC50: 5 to 20 µM for the first, 5 to 20 µM for the second.

Going from `Nc1c(-c2cccc(Cl)c2Cl)nc2sc(N3C[C@@H]4[C@@H](N)[C@@H]4C3)nn12` [Compound A3] to `Nc1c(-c2cccc(Cl)c2Cl)nc2sc(N3CCNCC3)nn12` [Compound A12, 6-(2,3-dichlorophenyl)-2-(piperazin-1-yl)imidazo[2,1-b][1,3,4]thiadiazol-5-amine], the IC50 rises from under 5 µM to over 20 µM. The first is the more potent here.

First: CC1(CN)CCN(c2nn3c(N)c(-c4cccc(Cl)c4Cl)nc3s2)C1 (centres unmarked) [Compound A5, 2-(3-(aminomethyl)-3-methylpyrrolidin-1-yl)-6-(2,3-dichlorophenyl)imidazo[2,1-b][1,3,4]thiadiazol-5-amine]
Second: CC1(CN)CCN(c2nn3c(N)c(-c4ccccc4Cl)nc3s2)C1 (centres unmarked) [Compound A6, 2-(3-(aminomethyl)-3-methylpyrrolidin-1-yl)-6-(2-chlorophenyl)imidazo[2,1-b][1,3,4]thiadiazol-5-amine]
The IC50 of the first is lower: under 5 µM for the first, 5 to 20 µM for the second.

`Cc1c(-c2ccccc2Cl)nc2sc(N3CCC(C)(CN)CC3)nn12` [Compound A7, (1-(6-(2-chlorophenyl)-5-methylimidazo[2,1-b][1,3,4]thiadiazol-2-yl)-4-methylpiperidin-4-yl)methanamine formate] and `Cc1c(-c2ccccc2Cl)nc2sc(N3CCC(C)(CN)C3)nn12` (centres unmarked) [Compound A10, (1-(6-(2-chlorophenyl)-5-methylimidazo[2,1-b][1,3,4]thiadiazol-2-yl)-3-methylpyrrolidin-3-yl)methanamine formate] cannot be ordered by IC50: under 5 µM for the first, under 5 µM for the second.

Going from `CC1(CN)CCN(c2nn3cc(C(=O)N4CCCc5ncccc54)nc3s2)C1` (centres unmarked) [Compound A8, (2-(3-(aminomethyl)-3-methylpyrrolidin-1-yl)imidazo[2,1-b][1,3,4]thiadiazol-6-yl)(3,4-dihydro-1,5-naphthyridin-1(2H)-yl)methanone formate] to `Cc1c(-c2ccccc2Cl)nc2sc(N3CCC(C)(N)C3)nn12` (centres unmarked) [Compound A11, 1-(6-(2-chlorophenyl)-5-methylimidazo[2,1-b][1,3,4]thiadiazol-2-yl)-3-methylpyrrolidin-3-amine formate], the IC50 falls from over 20 µM to under 5 µM.

Same assay, conditions: Table 2; 0.25 nM SHP2, 0.5 μM IRS1_pY1172(dPEG8)pY1222 peptide, DiFMUP 100 μM

First: CC1(N)CCN(c2nc(N)c(-c3cccc(Cl)c3Cl)s2)CC1 [Compound B1, 2-(4-amino-4-methyl-1-piperidyl)-5-(2,3-dichlorophenyl)thiazol-4-amine, dihydrochloride]
Second: Cc1nc(N2CCC(C)(CN)C2)sc1-c1ccccc1Cl (centres unmarked) [Compound B4, ((1-(5-(2-chlorophenyl)-4-methylthiazol-2-yl)-3-methylpyrrolidin-3-yl)methanamine formate]
The IC50 of the first is lower: under 100 µM for the first, over 100 µM for the second.

`CC1(CN)CCN(c2ncc(C(=O)N3CCCc4ncccc43)s2)C1` (centres unmarked) [Compound B2, (2-(3-(aminomethyl)-3-methylpyrrolidin-1-yl)thiazol-5-yl)(3,4-dihydro-1,5-naphthyridin-1(2H)-yl)methanone] and `CC1(CN)CCN(c2ncc(-c3ccccc3Cl)s2)C1` (centres unmarked) [Compound B3, (1-(5-(2-chlorophenyl)thiazol-2-yl)-3-methylpyrrolidin-3-yl)methanamine formate] cannot be ordered by IC50: over 100 µM for the first, over 100 µM for the second.

Same assay, conditions: Table 3; 0.25 nM SHP2, 0.5 μM IRS1_pY1172(dPEG8)pY1222 peptide, DiFMUP 100 μM

First: CC1(N)CCN(C(=O)c2csc(-c3ccccc3Cl)n2)CC1 [Compound C1, (4-amino-4-methylpiperidin-1-yl)(2-(2-chlorophenyl)thiazol-4-yl)methanone formate]
Second: O=C(O)c1csc(-c2ccccc2Cl)n1 [Compound C42]
The IC50 of the first is lower: under 500 µM for the first, over 1000 µM for the second. The first is the more potent here.

Compared with `O=C(O)c1csc(-c2cccc3ccccc23)n1` [Compound C2], `O=C(O)c1csc(-c2ccc(Cl)cc2Cl)n1` [Compound C5] is higher in IC50: under 500 µM for the first, 500 to 1000 µM for the second. The first is the more potent here.

First: O=C(Nc1cc(C(F)(F)F)cc(C(F)(F)F)c1)c1csc(-c2cccc(Cl)c2Cl)n1 [Compound C3]
Second: O=C(O)Cc1csc(-c2cccc(Cl)c2Cl)n1 [Compound C41]
The IC50 of the first is lower: 500 to 1000 µM for the first, over 1000 µM for the second. The first is the more potent here.

Going from `COc1cc(-c2nc(CSc3nncs3)cs2)ccc1O` [Compound C4] to `CCOc1ccc(-c2nc(CSc3nncs3)cs2)cc1OC` [Compound C23], the IC50 rises from under 500 µM to over 1000 µM.

Compared with `COc1ccc(-c2nc(CSc3nnnn3C)cs2)cc1OC` [Compound C6], `COc1ccc(-c2nc(CSc3nnnn3C3CC3)cs2)cc1OC` [Compound C25] is higher in IC50: 500 to 1000 µM for the first, over 1000 µM for the second.

First: COc1ccc(-c2nc(CSc3ncccn3)cs2)cc1OC [Compound C7]
Second: COc1ccc(-c2nc(CSc3cccc[n+]3[O-])cs2)cc1OC [Compound C16]
The IC50 of the first is higher: 500 to 1000 µM for the first, under 500 µM for the second.

Compared with `c1coc(-c2nc(CSc3nncs3)cs2)c1` [Compound C8], `c1cc(-c2nc(CSc3nncs3)cs2)co1` [Compound C24] is higher in IC50: 500 to 1000 µM for the first, over 1000 µM for the second. The first is the more potent here.

First: COc1cccc(-c2nc(CSc3nncs3)cs2)c1 [Compound C9]
Second: COc1ccc(-c2nc(CSc3nncs3)cs2)cc1 [Compound C28]
The IC50 of the first is lower: 500 to 1000 µM for the first, over 1000 µM for the second. The first is the more potent here.

Compared with `COc1ccc(-c2nc(CSc3nnc(C4CC4)n3N)cs2)cc1OC` [Compound C10], `COc1ccc(-c2nc(CSc3nccn3C3CC3)cs2)cc1OC` [Compound C12] is lower in IC50: 500 to 1000 µM for the first, under 500 µM for the second.

Going from `COc1cc(-c2nc(CN(C)c3ccc4c(c3)OCO4)cs2)ccc1O` [Compound C11] to `COc1cc(-c2nc(CN(C)Cc3ccco3)cs2)ccc1O` [Compound C37], the IC50 rises from under 500 µM to over 1000 µM.

First: c1nnc(SCc2csc(-c3ccc4c(c3)OCO4)n2)s1 [Compound C13]
Second: Cn1cnnc1SCc1csc(-c2ccc3c(c2)OCO3)n1 [Compound C26]
The IC50 of the first is lower: under 500 µM for the first, over 1000 µM for the second. The first is the more potent here.

`COCCn1cnnc1SCc1csc(-c2ccc(OC)c(OC)c2)n1` [Compound C15] and `COc1cc(-c2nc(CSc3nncn3C)cs2)ccc1O` [Compound C20] cannot be ordered by IC50: under 500 µM for the first, under 500 µM for the second.

Compared with `COc1cc(-c2nc(CSc3nnc(-c4ccccc4C)n3C)cs2)ccc1O` [Compound C18], `COc1cc(-c2nc(CSc3nnc(-c4ccc(C)cc4C)o3)cs2)ccc1O` [Compound C34] is higher in IC50: 500 to 1000 µM for the first, over 1000 µM for the second.

First: COc1ccc(-c2nc(CSc3nnc(NCC4CCCO4)s3)cs2)cc1OC (centres unmarked) [Compound C19]
Second: COc1ccc(-c2nc(CSc3nnc(N(C(C)=O)C4CC4)s3)cs2)cc1OC [Compound C38]
The IC50 of the first is lower: 500 to 1000 µM for the first, over 1000 µM for the second. The first is the more potent here.

First: COc1cc(-c2nc(Cn3cccc(C(F)(F)F)c3=O)cs2)ccc1O [Compound C21]
Second: COc1cc(-c2nc(CN3CCOCC3C)cs2)ccc1O (centres unmarked) [Compound C22]
The IC50 of the first is lower: under 500 µM for the first, over 1000 µM for the second.

`Clc1ccc(-c2nc(CSc3nncs3)cs2)cc1` [Compound C27] and `c1ccc(-c2nc(CSc3nncs3)cs2)cc1` [Compound C40] cannot be ordered by IC50: over 1000 µM for the first, over 1000 µM for the second.

`COc1ccc(-c2nc(CSc3nncn3-c3ccccc3)cs2)cc1OC` [Compound C29] and `COc1ccc(-c2nc(CSc3nnc(-c4ccco4)o3)cs2)cc1OC` [Compound C30] cannot be ordered by IC50: over 1000 µM for the first, over 1000 µM for the second.

`CCC(=O)N(c1nnc(SCc2csc(-c3ccc(OC)c(OC)c3)n2)s1)C1CC1` [Compound C31] and `CCOc1ccc(-c2nc(CSc3nnc(C)s3)cs2)cc1OC` [Compound C36] cannot be ordered by IC50: over 1000 µM for the first, over 1000 µM for the second.

`COc1ccc(-c2nc(CSc3nc4nc(C)cc(C)n4n3)cs2)cc1OC` [Compound C32] and `C=C(C)CSc1nnc(SCc2csc(-c3ccc(OC)c(OC)c3)n2)s1` [Compound C33] cannot be ordered by IC50: over 1000 µM for the first, over 1000 µM for the second.

`COc1cccc(Nc2nnc(SCc3csc(-c4ccc(OC)c(OC)c4)n3)s2)c1` [Compound C39] and `COc1ccccc1-c1nc(C(=O)N2CCCC(C(C)N)C2)cs1` (centres unmarked) [Compound C46] cannot be ordered by IC50: over 1000 µM for the first, over 1000 µM for the second.

`O=C(O)c1csc(-c2ncccc2Cl)n1` [Compound C43] and `CNCC1CCN(C(=O)Cc2csc(-c3ccc(Cl)cc3Cl)n2)C1` (centres unmarked) [Compound C45] cannot be ordered by IC50: over 1000 µM for the first, over 1000 µM for the second.

With `Cc1nc(-c2ccc(C(F)(F)F)cc2)sc1C(=O)N1CC[C@@H](N)C1` [Compound C44] the IC50 was over 1000 µM.
